Measured values: US20210127673A1, “HERBICIDES” (SYNGENTA PARTICIPATIONS AG, priority 2016, published 2021)

Tests used:
Format in all cases: in vivo
Conditions in all cases: evaluated after 13 days
[1] = tested on: Alopecurus myosuroides (ALOMY); assay: Pre-emergence herbicidal activity, Alopecurus myosuroides; set-up: key: 5=total damage to plant; 0=no damage to plant
In short: (§1)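 First, seeds were sown in standard soil and held one day under glasshouse conditions. Next, soil was sprayed with the active ingredient formulated in 50:50 acetone/water plus 0.5% Tween 20. Plants then grew at 24/16 °C day/night with 14 h light and 65% humidity before evaluation after 13 days.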

Avena fatua (AVEFA) [2] = assay: Pre-emergence herbicidal activity, Avena fatua; set-up: key: 5=total damage to plant; 0=no damage to plant
In short: as §1

[3] = tested on: Echinochloa crus-galli (ECHCG); assay: Pre-emergence herbicidal activity, Echinochloa crus-galli; set-up: key: 5=total damage to plant; 0=no damage to plant
In short: as §1

Setaria faberi (SETFA) [4] = assay: Post-emergence herbicidal activity, Setaria faberi; set-up: key: 5=total damage to plant; 0=no damage to plant
In short: (§2)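 Glasshouse post-emergence spray test: seedlings treated at 8 days after sowing with compound formulated in 50:50 acetone/water plus 0.5% Tween 20, then grown on at 24/16 °C, 14 h light, 65% humidity. Injury rated 13 days later, 0 = no damage, 5 = total damage.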

Avena fatua (AVEFA) [5] = assay: Post-emergence herbicidal activity, Avena fatua
In short: as §2

[6] = tested on: Alopecurus myosuroides (ALOMY); assay: Post-emergence herbicidal activity, Alopecurus myosuroides; set-up: key: 5=total damage to plant; 0=no damage to plant
In short: as §2

[7] = tested on: Echinochloa crus-galli (ECHCG); assay: Post-emergence herbicidal activity, Echinochloa crus-galli; set-up: key: 5=total damage to plant; 0=no damage to plant
In short: as §2

Setaria faberi (SETFA) [8] = assay: Pre-emergence herbicidal activity, Setaria faberi; set-up: key: 5=total damage to plant; 0=no damage to plant
In short: as §1

Lolium perenne (LOLPE) [9] = assay: Post-emergence herbicidal activity, Lolium perenne; set-up: key: 5=total damage to plant; 0=no damage to plant
In short: as §2

[10] = tested on: Triticum aestivium (TRZAW); assay: Post-emergence herbicidal activity, Triticum aestivium; set-up: key: 5=total damage to plant; 0=no damage to plant
In short: as §2

[11] = tested on: Triticum aestivium (TRZAW); assay: Pre-emergence herbicidal activity, Triticum aestivium; set-up: key: 5=total damage to plant; 0=no damage to plant
In short: as §1

Lolium perenne (LOLPE) [12] = assay: Pre-emergence herbicidal activity, Lolium perenne; set-up: key: 5=total damage to plant; 0=no damage to plant
In short: as §1

Compound	Control of ALOMY after pre-emergence application (score 0-5) ([1]; 1000 g/ha)	Control of AVEFA after pre-emergence application (score 0-5) (Avena fatua (AVEFA) [2]; 1000 g/ha)	Control of ECHCG after pre-emergence application (score 0-5) ([3]; 1000 g/ha)	Control of SETFA after post-emergence application (score 0-5) (Setaria faberi (SETFA) [4]; 1000 g/ha)	Control of AVEFA after post-emergence application (score 0-5) (Avena fatua (AVEFA) [5]; 1000 g/ha)	Control of ALOMY after post-emergence application (score 0-5) ([6]; 1000 g/ha)	Control of ECHCG after post-emergence application (score 0-5) ([7]; 1000 g/ha)	Control of SETFA after pre-emergence application (score 0-5) (Setaria faberi (SETFA) [8]; 1000 g/ha)	Control of LOLPE after post-emergence application (score 0-5) (Lolium perenne (LOLPE) [9]; 1000 g/ha)	Control of TRAZW after post-emergence application (score 0-5) ([10]; 1000 g/ha)	Control of TRAZW after pre-emergence application (score 0-5) ([11]; 1000 g/ha)	Control of LOLPE after pre-emergence application (score 0-5) (Lolium perenne (LOLPE) [12]; 1000 g/ha)	further results
CC(C)(C)COC(=O)Nc1ccc(-c2cncc(F)c2)nc1C(F)(F)F [Compound B91]													Control of ALOMY after pre-emergence application (score 0-5) ([1]; 250 g/ha): 0; Control of AVEFA after pre-emergence application (score 0-5) (Avena fatua (AVEFA) [2]; 250 g/ha): 1; Control of ECHCG after pre-emergence application (score 0-5) ([3]; 250 g/ha): 2; Control of SETFA after post-emergence application (score 0-5) (Setaria faberi (SETFA) [4]; 250 g/ha): 5; Control of AVEFA after post-emergence application (score 0-5) (Avena fatua (AVEFA) [5]; 250 g/ha): 2; Control of ALOMY after post-emergence application (score 0-5) ([6]; 250 g/ha): 0; Control of ECHCG after post-emergence application (score 0-5) ([7]; 250 g/ha): 2; Control of SETFA after pre-emergence application (score 0-5) (Setaria faberi (SETFA) [8]; 250 g/ha): 5; Control of LOLPE after post-emergence application (score 0-5) (Lolium perenne (LOLPE) [9]; 250 g/ha): 1; Control of TRAZW after post-emergence application (score 0-5) ([10]; 250 g/ha): 0; Control of TRAZW after pre-emergence application (score 0-5) ([11]; 250 g/ha): 1; Control of LOLPE after pre-emergence application (score 0-5) (Lolium perenne (LOLPE) [12]; 250 g/ha): 1
C=CCN(C(=O)OC(C)(C)C)c1ccc(-c2cncnc2)nc1C(F)(F)F [Compound B35]	0	0	2	5	2	0	3	4	2	1	0	1	
CN(C(N)=O)c1ccc(-c2cncc(F)c2)nc1C(F)(F)F [Compound B72]	0	0	2	4	1	1	4	4	1	1	0	0	
CC(C)(C)NC(=O)Nc1ccc(-c2cncc(F)c2)nc1C(F)(F)F [Compound B65]	1	2	2	4	3	1	5	3	3	0	0	1	
CCC(C)OC(=O)Nc1ccc(-c2cncc(F)c2)nc1C(F)(F)F (stereo not drawn) [Compound B56]	0	1	1	4	3	0	4	2	3	0	0	0	
CC(C)(C)OC(=O)N(CC1CC1)c1ccc(-c2cncc(F)c2)nc1C(F)(F)F [Compound B10]	1	2	3	5	3	1	4	5	3	1	0	1	
COCCNC(=O)Nc1ccc(-c2cncc(F)c2)nc1C(F)(F)F [Compound B60]	0	1	4	5	2	1	5	2	2	1	0	1	
CC(C)(C)OC(=O)N(Cc1ccc(F)cc1F)c1ccc(-c2cncc(F)c2)nc1C(F)(F)F [Compound B3]	0	0	0	3	2	0	2	0	0	0	0	0	
O=C(Nc1ccc(-c2cncc(F)c2)nc1C(F)(F)F)OCC1CC1 [Compound B94]	1	3	4	5	3	0	5	5	3	0	0	2	
O=C(Nc1ccc(-c2cncc(F)c2)nc1C(F)(F)F)N1CCCCC1 [Compound B51]	0	1	2	5	3	0	4	5	3	0	0	1	
